Data reported in PubChem BioAssay AID1963433 (Molecular Pharmacology Branch, DTP, NCI, 2024).

System: 772245-204-R-J1-PDC complex spheroid growth
Assay: Anticancer human tumor 772245-204-R-J1-PDC patient-derived rhabdomyosarcoma cell line growth inhibition [Asc]
Conditions: for IC50: curve of first compound; for viability, T/C: stronger effect = lower value
Experimental: Multicellular complex tumor spheroid response to apoptosis pathway targeting inhibitors Alrizomadlin, Pelcitoclax, and Dasminapant in combination with a variety of drugs and investigational agents in selected tumor cell lines
The MDM2 inhibitor alrizomadlin, the Bcl-2/Bcl-xL inhibitor pelcitoclax, and the IAPs inhibitor dasminapant were evaluated both individually and in combination with standard of care and investigational anticancer small molecules within a complex spheroid model of solid tumors. . Complex spheroids include a stromal component modeled by human endothelial cells (HUVEC) and fibroblasts modeled by human mesenchymal stem cells (MSCs). The concentration ranges selected for each drug and investigational agent were based upon clinically achievable concentrations if the clinical Cmax of the agent was known.
Compounds. The drugs and investigational agents: alrizomadlin (APG-115; NSC831270), pelcitoclax (APG-1252; NSC835773), dasminapant (APG-1387;NSC834197), TAK-243 (NSC785004), copanlisib (NSC809693), olaparib (NSC753686), talazoparib (NSC767125), cobimetinib (NSC 768068), eltanexor (KPT-8602, NSC 794443), abemaciclib (NSC 768073), sotorasib (NSC818433), adagrasib (NSC 831453), MRTX-1133 (NSC 836407), Iadademestat (ORY1001, NSC 806812), and RMC-4630 (NSC839698), were obtained from the NCI Developmental Therapeutics Program Chemical Repository. The FDA-approved anticancer drug set is available from the Developmental Therapeutics Program at https://dtp.cancer.gov/organization/dscb/obtaining/available plates.htm. […] The stock solutions were prepared in dimethyl sulfoxide (DMSO, Sigma-Aldrich, St. Louis, MO, cat. D2650) at 800-fold the tested concentration and stored at -70 degrees C prior to their use. All drugs and investigational agents were tested over a range starting from a high concentration at or near the clinical Cmax and decreasing in half-log increments. If the clinical Cmax for an agent had not been determined, the highest concentration tested was 10 microM.
The patient-derived cancer (PDC) cell lines include five colon adenocarcinomas: 186277-243-T-J2-PDC, 616215-338-R-J1-PDC, 439559-082-T-J2-PDC, 463943-066-T-J2-PDC, and 519858-162-T-J1-PDC; three pancreatic carcinomas: 323965-272-R-J2-PDC, 521955-158-R6-J3-PDC, and 521955-158-R2-J5-PDC; two uterine sarcomas: 327498-152-R-J2-PDC and 993429-296-R-J1-PDC; two rhabdomyosarcomas: 755483-174-R-J1-PDC and 772245-204-R-J1-PDC; two soft tissue sarcomas: 126254-015-R-J1-PDC and 494315-158-R-J1-PDC; two malignant fibrous histiocytomas: 317291-083-R-J1-PDC and 596521-263-R-J1-PDC; two breast carcinomas: 171881-019-R-J1-PDC and 885512-296-R-J2-PDC; and one ovarian carcinoma: 6556581-035-R-J-PDC were obtained from the NCI PDMR, (https://pdmr.cancer.gov). The established cell lines HSSY-2 synovial sarcoma (RRID:CVCL 8719), SYO-1 synovial sarcoma (RRID:CVCL_7146), MPNST malignant peripheral neural sheath tumor were obtained from the Sloan Kettering Institute. The following established cell lines were purchased from the American Type Culture Collection (ATCC, Manassas, VA), Sor the received from the NCI repository:, PANC-1 pancreatic carcinoma (CRL-1469, RRID:CVCL_0480), OVCAR-5 ovarian carcinoma (RRID:CVCL_1628), OVCAR-8 ovarian carcinoma (RRID:CVCL_1629), , MCF-7 breast carcinoma (CRL-12584, RRID:CVCL_0031), MDA-MB-231 breast carcinoma (CRL-12532, RRID:CVCL_0062), NCI-H1876 small cell lung carcinoma (CRL-5902, RRID:CVCL_1503), NCI-H510A small cell lung carcinoma (HTB-184, RRID:CVCL_1565), NCI-H1417 (CRL-5869, RRID:CVCL_1469), and NCI-H196 small cell lung carcinoma (CRL-5823, RRID:CVCL_1509). Dr. Peter Houghton (Greehey Children's Cancer Research Institute, University of Texas Health Science Center, San Antonio, TX) provided Rh-18 rhabdomyosarcoma (RRID:CVCL_1659). Pooled donor human umbilical vein endothelial cells (HUVEC, Lonza, cat. CC-2519) and human mesenchymal stem cells (hMSC, Lonza, cat. PT-2501) were purchased from Lonza (Walkersville, MD).
Cell Culture. […]

[1] = second compound 0.03 µM, first compound 0.0316 µM
[2] = second compound 0.03 µM, first compound 0.1 µM
[3] = second compound 0.0949 µM, first compound 0.0316 µM
[4] = second compound 0.0949 µM, first compound 0.1 µM
[5] = second compound 0.3 µM, first compound 0.0316 µM
[6] = second compound 0.3 µM, first compound 0.1 µM
[7] = second compound 0.949 µM, first compound 0.0316 µM
[8] = second compound 0.949 µM, first compound 0.1 µM
[9] = second compound 3 µM, first compound 0.0316 µM
[10] = second compound 3 µM, first compound 0.1 µM
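Further: compound exposure lasted seven days.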
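Wherever viability, T/C is given: 100% = DMSO vehicle control viability.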

Cn1ncnc1[C@H]1c2n[nH]c(=O)c3cc(F)cc(c23)N[C@@H]1c1ccc(F)cc1 + CCN1C(C(=O)NC23CCC(C(=O)O)(CC2)CC3)C(c2cccc(Cl)c2F)C2(C(=O)Nc3cc(Cl)ccc32)C12CCCCC2
IC50 (second compound 0.03 µM): > 0.1 µM | IC50 (second compound 0.0949 µM): > 0.1 µM | IC50 (second compound 0.3 µM): > 0.1 µM | IC50 (second compound 0.949 µM): > 0.1 µM | IC50 (second compound 3 µM): > 0.1 µM | viability, T/C (second compound 0.03 µM, first compound 0.000316 µM): 118% | viability, T/C (second compound 0.03 µM, first compound 0.001 µM): 106% | viability, T/C (second compound 0.03 µM, first compound 0.00316 µM): 95% | viability, T/C (second compound 0.03 µM, first compound 0.01 µM): 85.2% | viability, T/C [1]: 86.3% | viability, T/C [2]: 81.9% | viability, T/C (second compound 0.0949 µM, first compound 0.000316 µM): 103% | viability, T/C (second compound 0.0949 µM, first compound 0.001 µM): 112% | viability, T/C (second compound 0.0949 µM, first compound 0.00316 µM): 110% | viability, T/C (second compound 0.0949 µM, first compound 0.01 µM): 88.2% | viability, T/C [3]: 88.5% | viability, T/C [4]: 91.9% | viability, T/C (second compound 0.3 µM, first compound 0.000316 µM): 116% | viability, T/C (second compound 0.3 µM, first compound 0.001 µM): 115% | viability, T/C (second compound 0.3 µM, first compound 0.00316 µM): 107% | viability, T/C (second compound 0.3 µM, first compound 0.01 µM): 95.2% | viability, T/C [5]: 93% | viability, T/C [6]: 89.6% | viability, T/C (second compound 0.949 µM, first compound 0.000316 µM): 94.2% | viability, T/C (second compound 0.949 µM, first compound 0.001 µM): 99.1% | viability, T/C (second compound 0.949 µM, first compound 0.00316 µM): 119% | viability, T/C (second compound 0.949 µM, first compound 0.01 µM): 92.3% | viability, T/C [7]: 75.4% | viability, T/C [8]: 76.6% | viability, T/C (second compound 3 µM, first compound 0.000316 µM): 82.7% | viability, T/C (second compound 3 µM, first compound 0.001 µM): 94% | viability, T/C (second compound 3 µM, first compound 0.00316 µM): 75.8% | viability, T/C (second compound 3 µM, first compound 0.01 µM): 65.9% | viability, T/C [9]: 70.8% | viability, T/C [10]: 62.5%

O=C(c1cc(Cc2n[nH]c(=O)c3ccccc23)ccc1F)N1CCN(C(=O)C2CC2)CC1 + CCN1C(C(=O)NC23CCC(C(=O)O)(CC2)CC3)C(c2cccc(Cl)c2F)C2(C(=O)Nc3cc(Cl)ccc32)C12CCCCC2
IC50 (second compound 0.03 µM): > 10 µM | IC50 (second compound 0.0949 µM): > 10 µM | IC50 (second compound 0.3 µM): > 10 µM | IC50 (second compound 0.949 µM): > 10 µM | IC50 (second compound 3 µM): > 10 µM | viability, T/C [1]: 102% | viability, T/C [2]: 113% | viability, T/C (second compound 0.03 µM, first compound 0.316 µM): 93.7% | viability, T/C (second compound 0.03 µM, first compound 1 µM): 95.2% | viability, T/C (second compound 0.03 µM, first compound 3.16 µM): 87.3% | viability, T/C (second compound 0.03 µM, first compound 10 µM): 70.1% | viability, T/C [3]: 108% | viability, T/C [4]: 113% | viability, T/C (second compound 0.0949 µM, first compound 0.316 µM): 97.2% | viability, T/C (second compound 0.0949 µM, first compound 1 µM): 100% | viability, T/C (second compound 0.0949 µM, first compound 3.16 µM): 79.7% | viability, T/C (second compound 0.0949 µM, first compound 10 µM): 72% | viability, T/C [5]: 121% | viability, T/C [6]: 115% | viability, T/C (second compound 0.3 µM, first compound 0.316 µM): 102% | viability, T/C (second compound 0.3 µM, first compound 1 µM): 93.1% | viability, T/C (second compound 0.3 µM, first compound 3.16 µM): 92% | viability, T/C (second compound 0.3 µM, first compound 10 µM): 69.2% | viability, T/C [7]: 101% | viability, T/C [8]: 92.9% | viability, T/C (second compound 0.949 µM, first compound 0.316 µM): 99.6% | viability, T/C (second compound 0.949 µM, first compound 1 µM): 88.3% | viability, T/C (second compound 0.949 µM, first compound 3.16 µM): 73.3% | viability, T/C (second compound 0.949 µM, first compound 10 µM): 63.8% | viability, T/C [9]: 77.2% | viability, T/C [10]: 80.4% | viability, T/C (second compound 3 µM, first compound 0.316 µM): 84.1% | viability, T/C (second compound 3 µM, first compound 1 µM): 74.7% | viability, T/C (second compound 3 µM, first compound 3.16 µM): 55.8% | viability, T/C (second compound 3 µM, first compound 10 µM): 62.5%
